“Also recorded” adds a separate entry of the source.
How the values were obtained:
Assay type in all cases: in vivo
sensory panel [1] = assay: Sensory tests (organoleptic evaluation) of compounds added to inducing compositions; conditions: for kokumi sensation / flavour enhancing sensation (in words): added to various inducing compositions or foods; for kokumi sensation (in words): after undergoing an Amadori reaction
Text: Sensory tests subjecting the flavour enhancing compounds to organoleptic evaluation indicate that the isolated flavouring compounds are substantially tasteless in the form of an aqueous solution, but are useful for imparting the enhanced effects when added even in small amounts to certain inducing compositions or food products containing a glutamate and/or nucleic acid as further described below. […] The thresholds given herein are meant to reflect minimum amounts for use in chicken broth as a matrix; however, one skilled in the art, armed with this disclosure, will recognize that this amount can be adjusted, either higher or lower, dependent upon the matrix used and the desired intensity of the kokumi effect. In general, a certain amount of salt is also necessary to achieve the kokumi effect; typically, about 12 mmol/L, which is found naturally in nearly all food products. The compounds can be applied to different kinds of foods including without limitation snacks, soups, cereals, sauces, fish, and fish paste. Unless otherwise indicated, all sensory tests for the samples are determined using triangle tests ([…] and Belitz, Z. Lebensm. Unters. Forsch., 1975, 159, 65-72) in three different sessions. The sensory panel is trained to evaluate aqueous solutions (2 mL each) of the following reference taste compounds dissolved in bottled water with a pH of 6.0: sucrose (25 mmol/L) for sweet taste; lactic acid (20 mmol/L) for sour taste; NaCl (30 mmol/L) for salty taste; caffeine (1 mmol/L) for bitter taste; and MSG (3 mmol/L) for umami taste, tannic acid (0.05%) for puckering astringency, and quercetin-O-β-D-glucopyranoside (0.01 mmol/L) for a velvety astringent, mouth-drying oral sensation. For the training of viscosity, a gelatin solution (0.5% in water) was used. […] Sensory analyses were performed in a sensory panel room at 19-22° C. in three different sessions using nose clamps. For recording the taste profiles, samples are prepared as indicated in the examples below. Flavor profiles of samples are determined in a triangle test in three different sessions. Panelists refrain from eating or drinking for at least 1 hour prior to the session. At the start of the session and before each trial, the subjects rinsed with water and expectorated. The participants receive a set of two blanks and one taste sample. Liquids are swirled around in the mouth briefly and expectorated. […] Each sample with additive is compared to two reference samples without additives.

sensory panel [2] = assay: Sensory (triangle) tests of the compounds in water; conditions: for Sensory descriptors: pH 6.5; for Intensity (0-5): pH 6.5, aroma and taste intensity, scale 0-5; for kokumi sensation (in words): without inducing or glutamate-containing composition
Procedure: (§1) Unless otherwise indicated, all sensory tests for the samples are determined using triangle tests (Wieser and Belitz, Z. Lebensm. Unters. Forsch., 1975, 159, 65-72) in three different sessions. The sensory panel is trained to evaluate aqueous solutions (2 mL each) of the following reference taste compounds dissolved in bottled water with a pH of 6.0: sucrose (25 mmol/L) for sweet taste; lactic acid (20 mmol/L) for sour taste; NaCl (30 mmol/L) for salty taste; caffeine (1 mmol/L) for bitter taste; and MSG (3 mmol/L) for umami taste, tannic acid (0.05%) for puckering astringency, and quercetin-O-β-D-glucopyranoside (0.01 mmol/L) for a velvety astringent, mouth-drying oral sensation. For the training of viscosity, a gelatin solution (0.5% in water) was used. […] Sensory analyses were performed in a sensory panel room at 19-22° C. in three different sessions using nose clamps.
(§2) For recording the taste profiles, samples are prepared as indicated in the examples below. Flavor profiles of samples are determined in a triangle test in three different sessions. Panelists refrain from eating or drinking for at least 1 hour prior to the session. At the start of the session and before each trial, the subjects rinsed with water and expectorated. The participants receive a set of two blanks and one taste sample. Liquids are swirled around in the mouth briefly and expectorated. […] Each sample with additive is compared to two reference samples without additives. Kokumi intensity is rated according to a scale from 0 to 5 (with 5 being the most intensive). Punch refers to an initial kokumi sensation experienced in the mouth within 0-3 seconds from the time when a food or liquid is put in the mouth, while long-lasting refers to kokumi felt after 10-60 seconds therefrom.
Sensory (triangle) tests are performed by dissolving the listed compounds in water (Evian®). Additives are added as specified in table below. The pH-value of all samples is adjusted to 6.5 using formic acid (0.1 mol/L) or sodium hydroxide (0.1 mol/L). For each sample, aroma and taste intensity is rated and panelists are asked to describe sensory characteristics.

sensory panel [3] = assay: Sensory (triangle) tests: kokumi intensity in chicken broth; conditions: for Kokumi intensity (0-5): pH 6.5, scale 0-5 (blank = 2)
Procedure: as §1, §2
Sensory (triangle) tests are performed by dilution of 3 grams of chicken broth concentrate (Gourmet Bouillon Huhn; Maggi, Singen, Germany) with 100 mL water (Evian®). Additives are added as specified in table below. The pH-value of all samples is adjusted to 6.5 using formic acid (0.1 mol/L) or sodium hydroxide (0.1 mol/L). […] For each sample, kokumi intensity is rated and panelists were asked to describe sensory characteristics.

| SMILES | kokumi sensation / flavour enhancing sensation (in words) (sensory panel [1]; listed as formula (I)) | Sensory descriptors (sensory panel [2]; additive 5 mmol/L) | Intensity (0-5) (sensory panel [2]; additive 5 mmol/L) | kokumi sensation (in words) (sensory panel [2]) | kokumi effect (in words) (sensory panel [3]; Table 10) | Kokumi intensity (0-5) (sensory panel [3]; additive 5 mmol/L) | kokumi sensation (in words) (sensory panel [1]) | Intensity (0-5) (sensory panel [2]; additive 10 mmol/L) | Kokumi intensity (0-5) (sensory panel [3]; additive 10 mmol/L) | Sensory descriptors (sensory panel [2]; additive 10 mmol/L) | kokumi sensation / flavour enhancing sensation (in words) (sensory panel [1]) |
| --- | --- | --- | --- | --- | --- | --- | --- | --- | --- | --- | --- |
| CC=CSCC(NC(=O)CCC(N)C(=O)O)C(=O)NC(C[S+]([O-])C=CC)C(=O)O (racemic) [γ-L-glu-(E)-S-(propen-1-yl)-L-cys-(E)-S-(propen-1-yl)-L-cys-(+/−)-SO] | strong kokumi sensation; also recorded: surprisingly highly potent kokumi effect; also recorded: strong flavour enhancing sensation | flavourless | 0 | no kokumi sensation | surprisingly potent kokumi effect | 4.5 |  |  |  |  |  |
| C=CCSC[C@H](N)C(=O)O [S-allyl-L-cysteine] |  |  |  |  |  |  | good kokumi sensation | 1 | 3.3 |  |  |
| C/C=C/SC[C@H](NC(=O)CC[C@H](N)C(=O)O)C(=O)O [γ-L-glutamyl-(E)-S-1-propenyl-L-cysteine] |  |  |  |  |  |  | good kokumi sensation | 0.5 | 3.3 | onion aroma |  |
| C/C=C/SC[C@H](NC(=O)CC[C@H](NC(=O)[C@H](CS/C=C/C)NC(=O)CC[C@H](N)C(=O)O)C(=O)O)C(=O)O [γ-L-glutamyl-(E)-S-1-propenyl-L-cysteinyl-γ-L-glutamyl-(E)-S-1-propenyl-L-cysteine] |  |  |  | no kokumi sensation |  |  |  | 0 | 3.3 | flavourless | strong flavour enhancing sensation |
